Assay results as given in patent US20230052152A1, “COMPOUNDS FOR TREATMENT OF ALZHEIMER'S DISEASE” (SULFATEQ B.V., priority 2019, published 2023).
“Also recorded” adds a separate entry of the source.

Columns and labels:
[1] = system: SH-SY5Y cells; experiment: Glutamate-induced excitotoxicity, differentiated SH-SY5Y neuronal-like cells, Neutral Red viability; type: cell-based; settings: Homo sapiens, 60 mM glutamate 24 h; for EC50: 30 min pre-incubation, Neutral Red viability; for Emax: maximal restoration of viability
Protocol: (§1) Human SH-SY5Y neuroblastoma cells (ATCC #CRL-2266) were maintained in DMEM medium containing 10% fetal bovine serum and 1% Penicillin-Streptomycin solution (#P4333, Sigma-Aldrich, St. Louis, Mo.) and passaged when the cultures reach a confluency of 70%. Prior to experiments, SH-SY5Y cells were differentiated by serum reduction (to 1%) and stimulation with 10 μM retinoic acid (#R7882, Sigma-Aldrich, St. Louis, Mo.) for 72 hours. Differentiated SH-SY5Y cells were seeded at 0.6·10^5 cells/cm^2 for all experiments.
(§2) Differentiated SH-SY5Y cells were pre-incubated with SUL compounds (dose range 8·10^−4 to 1·10^−8 M) under standard culture conditions for 30 min and then stimulated with either 1-glutamate (60 mM; #12843-0, Sigma-Aldrich, St. Louis, Mo.) or dopamine (100 μM; #H8502, Sigma, St. Louis, Mo.) for an additional 24 h. Neutral Red Assay Solution (#N2889, Sigma-Aldrich, St. Louis, Mo.) was added to the cultures at a 10% (v/v) concentration during the final 4 hours of culture. Cells were washed with warm PBS and Neutral red solubilized in acid ethanol (1% acetic acid in 50% EtOH). Absorbances were recorded at 540 nm in a CLARIOStar Plus plate reader (BMG Labtech, Germany).
(§3) All experiments were performed in triplicate per condition and averaged. Data obtained from two individual experiments were used for evaluation in GraphPad Prism 8.0 (GraphPad Software Inc, Ca). 4 parameter non-linear regression was used to determine the efficacy and potency of SUL compounds to reduce the excitotoxicity induced by either 1-glutamate or dopamine.
SH-SY5Y neuroblastoma cells were differentiated into neuronal-like cells according to established protocols and stimulated with 60 mM glutamate to induce excitotoxicity.

[2] = system: SH-SY5Y cells; experiment: Dopamine-induced excitotoxicity, differentiated SH-SY5Y neuronal-like cells, Neutral Red viability; type: cell-based; settings: Homo sapiens, dopamine 24 h; for EC50: 30 min pre-incubation, Neutral Red viability; for Emax: maximal restoration of viability
Protocol: as §1, §2, §3
Differentiated SH-SY5Y neuroblastoma cells were stimulated with 150 μM dopamine to induce excitotoxicity.

[3] = system: WT and APP/PS1 mice; experiment: Fear conditioning (hippocampal dependent context memory test), freezing; type: in vivo, mouse; settings: chronic oral via food 2.5 to 6 moa, versus vehicle food
From the text: (§4) The APP/PS1 mouse model is a widely used A-beta pathology model for Alzheimer's disease (AD) (1 of the 2 main neuropathological hallmarks of AD). These mice contain human transgenes for APP (Swedish mutation) and PSEN1 (L166P mutation), which will lead to pathological amyloid deposition in the brain and impairments in hippocampal dependent memory and Long Term Potentiation (LTP) starting at ˜3 months of age (3 moa).
(§5) The effectiveness of SUL-138 ((6-hydroxy-2,5,7,8-tetramethylchroman-2-yl)(4-(2-hydroxyethyl)piperazin-1-yl)methanone) in relieving/preventing common pathology in the APP/PS1 model was tested. The effect on memory was tested in a hippocampal dependent context test (Fear conditioning (FC)) and synaptic connectivity was tested via electrophysiological LTP (Long-term potentiation) measurements. Both are impaired in this mouse model under basal conditions. In addition, Phenotypers (Sylics) were used to exclude that SUL-138 induces atypical behavior after chronic oral treatment.
Wild type (WT) and APP/PS1 mice were each divided in 2 groups, either receiving vehicle or SUL-138 via their food. Group size amounted 12 animals. […]
FC: mice were exposed to a context for 2 min after which they received a 0.7 mA footshock. […] 24 h later mice were put in the same context and freezing levels were measured for 2 min.
Memory was assessed at 6 moa by measuring freezing following context acquisition.

[4] = system: WT and APP/PS1 mice; experiment: Long-term potentiation (LTP) in acute hippocampal slices after chronic oral treatment; type: in vivo, mouse; settings: 3×100 Hz stimulation, p<0.05
From the text: as §4
(§6) Wild type (WT) and APP/PS1 mice were each divided in 2 groups, either receiving vehicle or SUL-138 via their food. Group size amounted 12 animals. Based on mouse weight of ˜30 g, food intake of ˜5 g/day and desired oral intake of 30 mg/day/kg, food pellets were sprayed with SUL-138 in water with 0.0145% ethanol at 1 g SUL-138 in 5 kg food. Vehicle food was prepared by spraying with the same volume of 0.0145% ethanol containing water.
(§7) Mice were treated chronically between 2.5 moa (pre-pathology/memory deficit) and 6 moa (age at which clear neuropathology and memory deficits occur) prior to testing.
LTP: Acute coronal hippocampal slices were kept in artificial CSF and LTP was measured after 3×100 Hz stimulation.
Between 8-14 hippocampal slices per group (2A: WT ctrl, WT SUL-138, 2B: APP ctrl, APP SUL-138) received LTP evoked by 3×100 Hz stimulation (tetanus) of 1 sec separated by 20 sec. The slope was measured for 60 min. LTP was expressed as a percentage of baseline. […]

[5] = system: WT and APP/PS1 mice; experiment: Phenotypers spontaneous behavior after chronic oral treatment; type: in vivo, mouse; settings: 3 days in phenotypers
Protocol: as §5, §6
Phenotypers (provided by Sylics, Amsterdam, Netherlands): Mice were housed in the phenotypers for 3 days during which spontaneous behavior: activity, dark/light, habituation, kinematics, light dark phase transition pattern and sheltering were measured.

[6] = Overall welfare and body weight during chronic oral treatment; type: in vivo, mouse; settings: vehicle versus SUL-138 treated animals
Protocol: as §6, §7

[7] = system: APP/PS1 mice; experiment: Plaque load (anti-Amyloid beta 6E10 staining of hippocampal slices); type: in vivo, mouse; settings: three months oral, versus vehicle
Protocol: APP/PS1 (n=10) and wildtype mice (WT, n=10) mice were treated, either with vehicle or SUL-138. Mice were treated for 3 months starting at 3 months of age with either SUL-138 or vehicle treated food pellets. The mice were sacrificed at 6 months of age, the age at which (among others) hippocampal dependent memory impairment and apparent plaque load are expected.
4% PFA perfused brains, stored on sucrose, were sliced at […] using a cryostat (−20° C.; Leica). Hippocampal slices (n=2/animal; 5 animals/group) were washed 3×10 min with 1× PBS, and then blocked for 1 h in Blocking solution (10 mL 1× PBS+500 μL normal Goat Serum+0.250 g Bovine Serum Albumin+20 μL Triton-100). The slices were incubated overnight with anti-Amyloid beta (6E10) (ITK Diagnostics, 1:400), washed 3×10 min with 1× PBS and then incubated with secondary Goat anti-mouse Alexa fluorescent 488 antibody (Sigma-Aldrich, 1:250) for 2 h. Then slices were washed 3×10 min with 1× PBS and mounted on slides.
Slices were imaged using the Zeiss Cell Discover 7 high content microscope with LSM900 confocal head. Using Fiji, both hippocampi were selected separately for 5 animals per group (yellow line in FIG. 3A) and number and size of plaques were measured (FIG. 3B, C). The mean number of plaques and plaque size per animal were used for statistical analyses in GraphPad 8 using Student's t-test, one-sided.

[8] = Bioavailability in brain; type: in vivo
[9] = system: prostaglandin synthases and the thromboxane synthase A; experiment: Hippocampal protein expression of prostaglandin synthases and thromboxane synthase A; type: in vivo, mouse; settings: hippocampal tissue, wildtype or APP/PS1 mice
From the text: Hippocampal tissue from wildtype and APP/PS1 mice was examined for the protein expression of prostaglandin synthases and the thromboxane synthase A. Peptides resembling the prostaglandin synthase PTGS1, PTGES2, PTGES3, and PTGFS were found in the hippocampal tissue of both wildtype and APP/PS1 mice (Table 4). No protein fragments of PTGS2, PTGDS, PTGES1, PTGIS and TXA could be found.

[10] = system: SH-SY5Y cells; experiment: Glutamate-induced excitotoxicity, differentiated SH-SY5Y neuronal-like cells, Neutral Red viability; type: cell-based, human; settings: 60 mM glutamate, 10^−3 to 10^−8 M

Compound | EC50 [1] [µM] | Emax [1] [%] | EC50 [2] [µM] | Emax [2] [%] | Freezing levels (memory) ([3]; APP/PS1 mice) | Freezing levels (memory) ([3]; WT mice) | LTP maintenance (min 30-60) ([4]; APP mice) | LTP maintenance (min 30-60) ([4]; WT mice) | Spontaneous behavior (activity, dark/light, habituation, kinematics, light dark phase transition pattern, sheltering) [5] | Overall welfare [6] | Plaque size ([7]; p=0.0021) | Number of plaques ([7]; p=0.0138) | Bioavailability in brain [8] | Protein expression of prostaglandin synthesizing enzymes [9] | Effectiveness in increasing viability of glutamate-challenged cells versus the other SUL-compounds [10]
Cc1c(C)c2c(c(C)c1O)CC[C@](C)(C(=O)N1CCNCC1)O2 [SUL-150, (R)-(6-hydroxy-2,5,7,8-tetramethylchroman-2-yl)(piperazin-1-yl)methanone] | 0.122 | 100 | 0.0555 | 100 | – | – | – | – | – | – | – | – | – | – | –
Cc1c(C)c(O)c(CC[C@@](C)(O)C(=O)N2CCN(CCO)CC2)c(C)c1O [SUL-138M2, 4-(2,5-dihydroxy-3,4,6-trimethylphenyl)-2-hydroxy-1-(4-(2-hydroxyethyl)piperazin-1-yl)-2-methylbutan-1-one] | 4.43 | 100 | 1.69 | 94.7 | – | – | – | – | – | – | – | – | – | – | –
Cc1c(C)c2c(c(C)c1O)CC[C@@](C)(C(=O)N1CCN(CCO)CC1)O2 [SUL-138, (S)-(6-hydroxy-2,5,7,8-tetramethylchroman-2-yl)(4-(2-hydroxyethyl)piperazin-1-yl)methanone] | 1.42 | 100 | 0.66 | 100 | increased; also recorded: restored to WT levels | increased | significantly (p<0.05) higher; also recorded: restore in APP/PS1 mice memory and LTP to control levels | significantly (p<0.05) higher | did not induce differences | did not show differences | reduced | reduced | appears to be high | did not alter | –
Cc1c(C)c2c(c(C)c1O)CCC(C)(C(=O)O)O2 (centres unmarked) [SUL-11, 6-hydroxy-2,5,7,8-tetramethylchroman-2-carboxylic acid, reference compound] | 4.62 | 76.7 | 8.35 | 79.5 | – | – | – | – | – | – | – | – | – | – | clearly less effective
Cc1c(C)c2c(c(C)c1O)CC[C@@](C)(C(=O)N[C@@H]1CCCNC1)O2 [SUL-13, (S)-6-hydroxy-2,5,7,8-tetramethyl-N-((R)-piperidin-3-yl)chromane-2-carboxamide] | 3.82 | 100 | 0.324 | 91.9 | – | – | – | – | – | – | – | – | – | – | –
Cc1c(C)c2c(c(C)c1O)CC[C@@](C)(C(=O)N1CCNCC1)O2 [SUL-151, (S)-(6-hydroxy-2,5,7,8-tetramethylchroman-2-yl)(piperazin-1-yl)methanone] | 0.0961 | 100 | 0.0692 | 100 | – | – | – | – | – | – | – | – | – | – | –
